Assay results: patent US10183915B2, “Axially chiral isomers, and preparation methods therefor and pharmaceutical uses thereof” (MEDSHINE DISCOVERY INC., priority 2015, dated 2019)

Target: T1, human URAT1 (Homo sapiens, UniProt Q96S37)
T1 construct: host or cells: HEK293
T1 sequence (Q96S37 1-553): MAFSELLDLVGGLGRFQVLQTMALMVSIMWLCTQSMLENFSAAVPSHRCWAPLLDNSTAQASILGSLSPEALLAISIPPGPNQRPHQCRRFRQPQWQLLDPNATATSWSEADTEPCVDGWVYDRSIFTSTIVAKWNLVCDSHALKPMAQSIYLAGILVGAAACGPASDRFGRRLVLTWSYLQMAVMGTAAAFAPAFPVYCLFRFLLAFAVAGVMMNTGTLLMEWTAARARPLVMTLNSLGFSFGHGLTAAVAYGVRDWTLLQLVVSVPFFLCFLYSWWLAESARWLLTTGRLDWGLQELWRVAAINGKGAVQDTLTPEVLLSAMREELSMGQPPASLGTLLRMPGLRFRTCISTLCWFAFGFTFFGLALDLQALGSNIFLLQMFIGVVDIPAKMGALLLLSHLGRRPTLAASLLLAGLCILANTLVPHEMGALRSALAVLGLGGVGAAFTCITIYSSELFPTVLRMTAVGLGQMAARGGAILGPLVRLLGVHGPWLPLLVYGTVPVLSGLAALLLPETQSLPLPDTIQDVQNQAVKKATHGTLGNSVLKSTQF
Assay: Inhibition of URAT1-mediated uptake of 14C-labeled uric acid in stably transfected HEK293 cells
Assay type: cell-based
Details: multiple parallel tests
Experimental: A HEK293 cell line stably transfected with URAT-1 (uric acid transporter) gene was used to determine the IC50 value of the compound to inhibit the reabsorption of uric acid.
URAT-1 (HEK293) cell lines: HEK293 cell line with human URAT1 stable transfected (the cell line was constructed by WuXi AppTec in Shanghai).
4) The cells were diluted with culture medium to 2.5×10^5 cells/mL. The diluted cells was seeded into 24-well plates (800 μg/hole, 2×10^5 cells/hole) coated with rat tail collagen and the plates were incubated at 37° C. under 5% CO2 overnight.
1) The cells were inoculated on the 24-well plates and discarded 16-18 hours later. Add 600 μL HBSS buffer to each hole and clean it two times
2) Absorb the HBSS buffer and then add 180 μL of HBSS buffer to each hole.
1) Dissolve the compound powder in 100% DMSO. […]
10 μL of ^14C-Uric acid solution was diluted and added to each well of 24-well plates and the final concentration of ^14C-uric acid was 50 μM. […] Collect the cell lysis in liquid scintillation and read the Tri-Carb signal in liquid scintillation counter after adding the liquid scintillation solution.
Based on the luminescence data, the inhibitory effect of compounds on URAT-1 was analyzed, and the percentage of inhibition data was calculated. […]

## O=C(O)CSc1nnc(Br)n1-c1ccc(C2CC2)c2ccccc12 (single isomer, unassigned) [(+)-Lesinurad]
  In vitro potency against URAT1 compared with (−)-Lesinurad and (±)-Lesinurad: obviously higher in vitro potency
